Where “and” joins values, the source holds several entries; their conditions need not be identical. Identical values can stand only once.
Tests used:
Assay type in all cases: biochemical
[1] = biological target: T1, Hordeum HPPD (SEQ ID NO:2) (Hordeum vulgare, UniProt O48604, A164G/R146V/R147D/R148G); experiment: HPPD activity assay, in vitro characterization
T1 construct: subcloned into a modified pET24D (Novagen) expression vector resulting in N-terminally His-tagged expression constructs; His (N); made in house; host or cells: E. coli BL21 (DE3)
T1 sequence (O48604 whole entry R146V/R147D/R148G/A164G): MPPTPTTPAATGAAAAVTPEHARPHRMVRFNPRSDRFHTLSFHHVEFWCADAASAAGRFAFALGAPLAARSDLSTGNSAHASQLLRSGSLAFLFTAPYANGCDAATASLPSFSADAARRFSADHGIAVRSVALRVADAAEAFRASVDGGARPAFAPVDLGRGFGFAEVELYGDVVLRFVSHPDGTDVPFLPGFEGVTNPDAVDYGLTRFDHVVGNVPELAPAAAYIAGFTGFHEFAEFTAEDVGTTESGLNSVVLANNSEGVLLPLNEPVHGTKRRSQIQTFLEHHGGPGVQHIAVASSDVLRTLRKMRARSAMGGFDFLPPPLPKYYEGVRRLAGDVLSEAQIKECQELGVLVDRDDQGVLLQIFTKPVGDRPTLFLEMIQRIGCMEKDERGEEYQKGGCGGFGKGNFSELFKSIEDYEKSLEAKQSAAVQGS
Description: (§1) HPPD produces homogentisic acid and CO2 from 4-hydroxyphenylpyruvate (4-HPP) and O2. The activity assay for HPPD is based on the analysis of homogentisic acid by reversed phase HPLC.
(§2) The assay mixture can contain 150 mM potassium phosphate buffer pH 7.0, 50 mM L-ascorbic acid, 100 μM Catalase (Sigma-Aldrich), 1 μM FeSO4 and 0.2 units of purified HPPD enzyme in a total volume of 505 μl. 1 unit is defined as the amount of enzyme that is required to produce 1 nmol of HGA per minute at 20° C.
(§3) After a preincubation of 30 min the reaction is started by adding 4-HPP to a final concentration of 0.05 mM. The reaction is allowed to proceed for 45 min at room temperature. The reaction is stopped by the addition of 50 μl of 4.5 M phosphoric acid. The sample is filtered using a […] pore size PVDF filtration device.
(§4) 5 μl of the cleared sample is analyzed on an UPLC HSS T3 column (particle size 1.8 μm, dimensions 2,1×50 mm; Waters) by isocratic elution using 90% 20 mM NaH2PO4 pH 2.2, 10% methanol (v/v).
(§5) HGA is detected electrochemically at 750 mV (mode: DC; polarity: positive) and quantified by integrating peak areas (Empower software; Waters).
(§6) Inhibitors are dissolved in DMSO (dimethylsulfoxide) to a concentration of 0.5 mM. From this stock solution serial five-fold dilutions are prepared in DMSO, which are used in the assay. The respective inhibitor solution accounts for 1% of the assay volume. […] Activities are normalized by setting the uninhibited enzyme activity to 100%. IC50 values are calculated using non-linear regression.
Using methods which are described in the above examples or well known in the art, purified, recombinant wildtype HPPD enzymes are characterized with respect to their kinetic properties and sensitivity towards HPPD inhibiting herbicides. Apparent michaelis constants (Km) and maximal reaction velocities (Vmax) are calculated by non-linear regression with the software GraphPad Prism 5 (GraphPad Software, La Jolla, USA) using a substrate inhibition model. […] Weighted means (by standard error) of Km and IC50 values are calculated from at least three independent experiments. […] To assess the potential performance of a herbicide tolerance trait a tolerance index (TI) is calculated using the following formula: […]

[2] = biological target: T2, Hordeum HPPD variant S252T (Hordeum vulgare, UniProt O48604, A164G/R146V/R147D/R148G/S252T); experiment: HPPD activity assay, in vitro characterization of HPPD mutants; details: normalized to wild-type
T2 construct: His (N); made in house; host or cells: E. coli BL21 (DE3)
T2 sequence (O48604 whole entry R146V/R147D/R148G/A164G/S252T): as the sequence (O48604 whole entry R146V/R147D/R148G/A164G) above, with S252T counted along it
Description: as §1, §2, §3, §4, §5, §6
(§7) Purified, mutant HPPD enzymes are obtained by the methods described above. Dose response and kinetic measurements are carried out using the described HPPD activity assay. Apparent michaelis constants (Km) and maximal reaction velocities (Vmax) are calculated by non-linear regression with the software GraphPad Prism 5 (GraphPad Software, La Jolla, USA) using a substrate inhibition model. […] Weighted means (by standard error) of Km and IC50 values are calculated from at least three independent experiments.
(§8) Field performance of the optimized HPPD enzyme, which is used as a herbicide tolerance trait may depend not only on its lack of sensitivity towards HPPD inhibiting herbicides but also on its activity. To assess the potential performance of a herbicide tolerance trait a tolerance index (TI) is calculated using the following formula: […]

[3] = biological target: T3, Hordeum HPPD variant L320H (Hordeum vulgare, UniProt O48604, A164G/L320H/R146V/R147D/R148G); experiment: as above; details: normalized to wild-type
T3 construct: His (N); made in house; host or cells: E. coli BL21 (DE3)
T3 sequence (O48604 whole entry R146V/R147D/R148G/A164G/L320H): as the sequence (O48604 whole entry R146V/R147D/R148G/A164G) above, with L320H counted along it
Description: as §1, §2, §3, §4, §5, §6, §7, §8

[4] = biological target: T4, Hordeum HPPD variant L353M, P321R, L320N (Hordeum vulgare, UniProt O48604, L320N/L353M/P321R); experiment: as above; details: normalized to wild-type
T4 construct: His (N); made in house; host or cells: E. coli BL21 (DE3)
T4 sequence (O48604 whole entry R146V/R147D/R148G/A164G/L320N/P321R/L353M): as the sequence (O48604 whole entry R146V/R147D/R148G/A164G) above, with L320N, P321R, L353M counted along it
Description: as §1, §2, §3, §4, §5, §6, §7, §8

[5] = biological target: T5, Hordeum HPPD variant L250M (Hordeum vulgare, UniProt O48604, A164G/L250M/R146V/R147D/R148G); experiment: as above; details: normalized to wild-type
T5 construct: His (N); made in house; host or cells: E. coli BL21 (DE3)
T5 sequence (O48604 whole entry R146V/R147D/R148G/A164G/L250M): as the sequence (O48604 whole entry R146V/R147D/R148G/A164G) above, with L250M counted along it
Description: as §1, §2, §3, §4, §5, §6, §7, §8

[6] = biological target: T6, Hordeum HPPD variant F404L (Hordeum vulgare, UniProt O48604, A164G/F404L/R146V/R147D/R148G); experiment: as above; details: normalized to wild-type
T6 construct: His (N); made in house; host or cells: E. coli BL21 (DE3)
T6 sequence (O48604 whole entry R146V/R147D/R148G/A164G/F404L): as the sequence (O48604 whole entry R146V/R147D/R148G/A164G) above, with F404L counted along it
Description: as §1, §2, §3, §4, §5, §6, §7, §8

[7] = biological target: T7, Hordeum HPPD variant L320H, P321A (Hordeum vulgare, UniProt O48604, L320H/P321A); experiment: as above; details: normalized to wild-type
T7 construct: His (N); made in house; host or cells: E. coli BL21 (DE3)
T7 sequence (O48604 whole entry R146V/R147D/R148G/A164G/L320H/P321A): as the sequence (O48604 whole entry R146V/R147D/R148G/A164G) above, with L320H, P321A counted along it
Description: as §1, §2, §3, §4, §5, §6, §7, §8

[8] = biological target: T8, Hordeum HPPD variant R309K (Hordeum vulgare, UniProt O48604, A164G/R146V/R147D/R148G/R309K); experiment: as above; details: normalized to wild-type
T8 construct: His (N); made in house; host or cells: E. coli BL21 (DE3)
T8 sequence (O48604 whole entry R146V/R147D/R148G/A164G/R309K): as the sequence (O48604 whole entry R146V/R147D/R148G/A164G) above, with R309K counted along it
Description: as §1, §2, §3, §4, §5, §6, §7, §8

[9] = biological target: T9, Arabidopsis HPPD variant M335H, P336G (Arabidopsis thaliana, UniProt P93836, M335H/P336G); experiment: as above; details: normalized to wildtype
T9 construct: His6 (N); made in house; host or cells: E. coli BL21 (DE3)
T9 sequence (P93836 whole entry M335H/P336G): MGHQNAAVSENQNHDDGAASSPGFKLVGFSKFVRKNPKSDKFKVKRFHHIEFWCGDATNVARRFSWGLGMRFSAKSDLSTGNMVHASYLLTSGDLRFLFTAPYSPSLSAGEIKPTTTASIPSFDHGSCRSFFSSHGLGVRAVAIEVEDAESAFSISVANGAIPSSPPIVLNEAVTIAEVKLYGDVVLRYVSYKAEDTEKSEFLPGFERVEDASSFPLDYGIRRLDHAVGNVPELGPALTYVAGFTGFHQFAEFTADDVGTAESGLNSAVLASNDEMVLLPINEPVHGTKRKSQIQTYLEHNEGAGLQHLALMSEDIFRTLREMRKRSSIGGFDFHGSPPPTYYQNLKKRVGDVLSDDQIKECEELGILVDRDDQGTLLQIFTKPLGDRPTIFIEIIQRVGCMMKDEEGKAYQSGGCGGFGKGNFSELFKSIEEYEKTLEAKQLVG
Description: as §1, §2, §3, §4, §5, §6, §7, §8

[10] = biological target: T10, Arabidopsis HPPD variant M335H, P336G, E363Q (Arabidopsis thaliana, UniProt P93836, E363Q/M335H/P336G); experiment: as above; details: normalized to wildtype
T10 construct: His6 (N); made in house; host or cells: E. coli BL21 (DE3)
T10 sequence (P93836 whole entry M335H/P336G/E363Q): as the sequence (P93836 whole entry M335H/P336G) above, with E363Q counted along it
Description: as §1, §2, §3, §4, §5, §6, §7, §8

[11] = biological target: T11, Hordeum HPPD variant F377L (Hordeum vulgare, UniProt O48604, A164G/F377L/R146V/R147D/R148G); experiment: as above; details: normalized to wild-type
T11 construct: His (N); made in house; host or cells: E. coli BL21 (DE3)
T11 sequence (O48604 whole entry R146V/R147D/R148G/A164G/F377L): as the sequence (O48604 whole entry R146V/R147D/R148G/A164G) above, with F377L counted along it
Description: as §1, §2, §3, §4, §5, §6, §7, §8

[12] = Hordeum HPPD Wild-type (SEQ ID NO: 2), reference of Table 16
[13] = Hordeum HPPD, reference, normalized to SEQ ID NO:2

Compound | Ki [1] | Normalized tolerance index (TI) [1, 12] | Normalized tolerance index (TI) [1, 13] | TI (tolerance index) ([1]; Hordeum HPPD, not normalized) | Normalized tolerance index (TI) [2] | Normalized tolerance index (TI) [3] | Normalized tolerance index (TI) [4] | Normalized tolerance index (TI) [5] | Normalized tolerance index (TI) [6] | Normalized tolerance index (TI) [7] | Normalized tolerance index (TI) [8] | Normalized tolerance index (TI) [9] | Normalized tolerance index (TI) [10] | Normalized tolerance index (TI) [11]
Cn1nnnc1NC(=O)c1c(F)cc(Cl)c(S(C)(=O)=O)c1Cl [Inhibitor 1, 2,4-dichloro-6-fluoro-3-methylsulfonyl-N-(1-methyltetrazol-5-yl)benzamide] | 3.7 nM | 1 | 1 | 1.6E−3 | 1.8 | 4 and 4.6 | 1.9 | 3.1 | 1.6 | 3.7 | 2.6 | 0.5 | 0.2 | 11.8
CSc1c(Cl)cc(F)c(C(=O)Nc2ncnn2C)c1Cl [Inhibitor 3, 2,4-dichloro-6-fluoro-3-methylsulfanyl-N-(2-methyl-1,2,4-triazol-3-yl)benzamide] | – | 1 | 1 | – | 11.1 | 1.9 | 0.9 | 1 | 1.8 | 14.3 | 3 | 0.1 | 0.3 | 2

Reference: patent US11230717B2, “Plants having increased tolerance to herbicides” (BASF SE, priority 2013, dated 2022)
